Assay [1] addresses T1, recombinant form of Glutaminase 1 (GAC) (Homo sapiens, UniProt O94925).
T1 sequence (O94925 137-598 isoform O94925-3 limits assumed): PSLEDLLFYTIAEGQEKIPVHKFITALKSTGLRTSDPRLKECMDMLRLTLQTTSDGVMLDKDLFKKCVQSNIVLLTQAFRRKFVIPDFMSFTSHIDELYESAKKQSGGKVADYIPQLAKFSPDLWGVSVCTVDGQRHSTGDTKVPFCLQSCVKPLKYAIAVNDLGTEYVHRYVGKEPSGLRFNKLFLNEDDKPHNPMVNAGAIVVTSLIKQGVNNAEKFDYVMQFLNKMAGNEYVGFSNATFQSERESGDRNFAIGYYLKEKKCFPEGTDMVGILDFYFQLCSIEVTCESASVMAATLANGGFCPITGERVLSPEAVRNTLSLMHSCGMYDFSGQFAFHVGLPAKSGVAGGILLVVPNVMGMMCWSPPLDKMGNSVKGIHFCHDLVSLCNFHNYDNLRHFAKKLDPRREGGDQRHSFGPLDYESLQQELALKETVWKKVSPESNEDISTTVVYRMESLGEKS
Kind of assay: Recombinant Enzyme Assay - Time Dependence (60 min preincubation). Format: biochemical. In outline: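 Enzyme and compound preincubated 60 min at 20° C; reaction started with substrate buffer (50 mM Tris-HCl pH 8.0, 150 mM K2HPO4, 1 mM DTT, 20 mM L-glutamine, 2 mM NAD^+). NADH formation followed at 340 nm in kinetic mode for 15 min at 20° C; slopes (mAU/min) compared with DMSO and control-compound wells.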

A further assay concerns P493-6 (myc "on") cells. The experiment in a line: Cell Proliferation Assay. Format: cell-based. The conditions noted are these: P493-6, 72 h, read-out: Cell prolif P493 72 h IC50, P493-6 cells, 72 h. An outline of the steps:
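P493-6 cells with myc on, 10,000 per well in RPMI/10% FBS, exposed to serially diluted compound (0.5% DMSO final) for 72 h at 37 °C, 5% CO2. Antiproliferative effect read by Cell Titer Glo luminescence or Viacount FACS viability count.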

Where [2] appears, read: read-out: GAC Delta N2 IC50 60 min preinc.

Structures are written as SMILES. Where two headings read alike, the source gives them in different places.

For `COC(=O)NCc1cccc(CC(=O)Nc2ccc(CCCCc3nnc(NC(=O)C(C)c4ccccc4)s3)nn2)c1` (stereo not drawn) [Compound 553], the IC50 in assay [1] (setting [2]) was 5 nM; with P493-6 (myc "on") cells, 19 nM.

With `CCOC(=O)NCc1cccc(CC(=O)Nc2ccc(CCCCc3nnc(NC(=O)C(C)c4ccccc4)s3)nn2)c1` (stereo not drawn) [Compound 555], the IC50 turned out to be 4 nM in assay [1] (setting [2]) and 10 nM in the assay on P493-6 (myc "on") cells.

Turning to `CCOc1cc(CC(=O)Nc2nnc(CCCCc3ccc(NC(=O)Cc4ccccc4)nn3)s2)ccc1O` [Compound 556], the IC50 in assay [1] (setting [2]) was determined as 5 nM; with P493-6 (myc "on") cells, 120 nM.

`CC(N)c1cccc(CC(=O)Nc2nnc(CCCCc3ccc(NC(=O)Cc4ccccc4)nn3)s2)c1` (stereo not drawn) [Compound 559]: the IC50 in assay [1] (setting [2]) is 12 nM; with P493-6 (myc "on") cells, 66 nM.

For the molecule `COC(=O)NC(C)c1cccc(CC(=O)Nc2nnc(CCCCc3ccc(NC(=O)Cc4ccccc4)nn3)s2)c1` (stereo not drawn) [Compound 561], the IC50 (in assay [1] (setting [2]); with P493-6 (myc "on") cells) was 4 nM each time.

Regarding `CCOC(=O)NC(C)c1cccc(CC(=O)Nc2nnc(CCCCc3ccc(NC(=O)Cc4ccccc4)nn3)s2)c1` (stereo not drawn) [Compound 562], the IC50 in assay [1] (setting [2]) was 3 nM; with P493-6 (myc "on") cells, 2 nM.

On to `CC(C)(C)C(=O)NCc1cccc(CC(=O)Nc2nnc(CCCCc3ccc(NC(=O)Cc4ccccc4)nn3)s2)c1` [Compound 564], for which the IC50 was found to be 4 nM in assay [1] (setting [2]) and 2 nM with P493-6 (myc "on") cells.

In the case of `O=C(Cc1ccccc1Cl)Nc1ccc(CCCCc2nnc(NC(=O)Cc3ccccc3Cl)s2)nn1` [Compound 565], the figures for the IC50 (in assay [1] (setting [2]); in the assay with P493-6 (myc "on") cells) were 5 nM and 13 nM, respectively.

Take `COC(=O)NCc1cccc(CC(=O)Nc2ccc(CCCCc3nnc(NC(=O)Cc4cccc(CNC(=O)OC)c4)s3)nn2)c1` [Compound 573]: the IC50 in assay [1] (setting [2]) was 4 nM; with P493-6 (myc "on") cells, 15 nM.

As to `CCC(O)C(=O)NCc1cccc(CC(=O)Nc2nnc(CCCCc3ccc(NC(=O)Cc4ccccc4)nn3)s2)c1` (stereo not drawn) [Compound 575], the IC50 was 7 nM in assay [1] (setting [2]) and 40 nM in the assay on P493-6 (myc "on") cells.

For the molecule `CC(C(=O)NCc1cccc(CC(=O)Nc2nnc(CCCCc3ccc(NC(=O)Cc4ccccc4)nn3)s2)c1)c1ccc(O)cc1` (stereo not drawn) [Compound 576], the IC50 in assay [1] (setting [2]) was 3 nM; with P493-6 (myc "on") cells, 13 nM.

Consider `O=C(Cc1ccccc1)Nc1ccc(CCCCc2nnc(NC(=O)Cc3cccc(CNC(=O)C(O)C(F)(F)F)c3)s2)nn1` (stereo not drawn) [Compound 577], for which the IC50 was found to be 4 nM in assay [1] (setting [2]) and 34 nM in the assay with P493-6 (myc "on") cells.

Take `O=C(CC(O)C(F)(F)F)NCc1cccc(CC(=O)Nc2nnc(CCCCc3ccc(NC(=O)Cc4ccccc4)nn3)s2)c1` (stereo not drawn) [Compound 578]: the results for the IC50 (in assay [1] (setting [2]); in the assay with P493-6 (myc "on") cells) were 4 nM and 22 nM, respectively.

As to `CC(O)(CC(=O)NCc1cccc(CC(=O)Nc2nnc(CCCCc3ccc(NC(=O)Cc4ccccc4)nn3)s2)c1)C(F)(F)F` (stereo not drawn) [Compound 579], the IC50 in assay [1] (setting [2]) was determined as 4 nM; with P493-6 (myc "on") cells, 9 nM.

Consider `CC1(C)OCC(C)(C(=O)NCc2cccc(CC(=O)Nc3nnc(CCCCc4ccc(NC(=O)Cc5ccccc5)nn4)s3)c2)CO1` [Compound 580], for which the IC50 in assay [1] (setting [2]) is 5 nM; with P493-6 (myc "on") cells, 13 nM.

On to `CC(CO)(CO)C(=O)NCc1cccc(CC(=O)Nc2nnc(CCCCc3ccc(NC(=O)Cc4ccccc4)nn3)s2)c1` [Compound 581], for which the IC50 in assay [1] (setting [2]) stood at 11 nM; in the assay with P493-6 (myc "on") cells, 240 nM.

Regarding `CS(=O)(=O)CCCOc1cccc(CC(=O)Nc2nnc(CCCCc3ccc(NC(=O)Cc4ccccc4)nn3)s2)c1` [Compound 583], the figures for the IC50 (in assay [1] (setting [2]); in the assay with P493-6 (myc "on") cells) were 5 nM and 42 nM, respectively.

Turning to `CC(C(=O)Nc1nnc(CCCCc2ccc(NC(=O)Cc3ccccc3)nn2)s1)c1cccc(C(=O)c2ccccc2)c1` (stereo not drawn) [Compound 587], the IC50 in assay [1] (setting [2]) is 7 nM; with P493-6 (myc "on") cells it was 57 nM.

Turning to `CCOC(=O)c1ccc(CC(=O)Nc2nnc(CCCCc3ccc(NC(=O)Cc4ccccc4)nn3)s2)cc1OCC` [Compound 588], the IC50 in assay [1] (setting [2]) was 8 nM; in the assay with P493-6 (myc "on") cells, 270 nM.

Regarding `CC(=O)NC(C)c1cccc(CC(=O)Nc2ccc(CCCCc3nnc(NC(=O)Cc4ccccc4)s3)nn2)c1` (stereo not drawn) [Compound 590], the IC50 in assay [1] (setting [2]) was 7 nM; in the assay on P493-6 (myc "on") cells it was 87 nM.

As for `CCNC(=O)OC(C)c1cccc(CC(=O)Nc2nnc(CCCCc3ccc(NC(=O)Cc4ccccc4)nn3)s2)c1` (stereo not drawn) [Compound 592], the IC50 was determined as 4 nM in assay [1] (setting [2]) and 11 nM in the assay with P493-6 (myc "on") cells.

As to `CC(O)c1cccc(CC(=O)Nc2nnc(CCCCc3ccc(NC(=O)Cc4ccccc4)nn3)s2)c1` (stereo not drawn) [Compound 593], the results for the IC50 (in assay [1] (setting [2]); in the assay on P493-6 (myc "on") cells) were 5 nM and 33 nM, respectively.

For the molecule `CCNC(=O)OC(C)c1cccc(CC(=O)Nc2ccc(CCCCc3nnc(NC(=O)C(C)c4ccccc4)s3)nn2)c1` (stereo not drawn) [Compound 594], the IC50 in assay [1] (setting [2]) amounted to 7 nM; in the assay with P493-6 (myc "on") cells it was 50 nM.

For `CC(O)c1cccc(CC(=O)Nc2ccc(CCCCc3nnc(NC(=O)C(C)c4ccccc4)s3)nn2)c1` (stereo not drawn) [Compound 595], the IC50 in assay [1] (setting [2]) was 7 nM; in the assay on P493-6 (myc "on") cells it was 59 nM.

For the molecule `CCNC(=O)OC(C)c1cccc(CC(=O)Nc2ccc(CCCCc3nnc(NC(=O)Cc4cccc(OC(F)(F)F)c4)s3)nn2)c1` (stereo not drawn) [Compound 596], the IC50 in assay [1] (setting [2]) is 15 nM; in the assay on P493-6 (myc "on") cells, 330 nM.

For the molecule `CC(O)c1cccc(CC(=O)Nc2ccc(CCCCc3nnc(NC(=O)Cc4cccc(OC(F)(F)F)c4)s3)nn2)c1` (stereo not drawn) [Compound 597], the IC50 in assay [1] (setting [2]) came to 5 nM; with P493-6 (myc "on") cells it was 17 nM.

Consider `COC(=O)NC(C)c1cccc(CC(=O)Nc2ccc(CCCCc3nnc(NC(=O)C(C)c4ccccc4)s3)nn2)c1` (stereo not drawn) [Compound 601], for which the IC50 in assay [1] (setting [2]) is 6 nM; with P493-6 (myc "on") cells, 36 nM.

For the molecule `CCOC(=O)NC(C)c1cccc(CC(=O)Nc2ccc(CCCCc3nnc(NC(=O)C(C)c4ccccc4)s3)nn2)c1` (stereo not drawn) [Compound 602], the figures for the IC50 (in assay [1] (setting [2]); in the assay on P493-6 (myc "on") cells) were 6 nM and 36 nM, respectively.

As for `CC(C)(C)OC(=O)N1Cc2cccc(CC(=O)Nc3nnc(CCCCc4ccc(NC(=O)Cc5ccccc5)nn4)s3)c2C1` [Compound 608], the IC50 in assay [1] (setting [2]) stood at 7 nM; in the assay with P493-6 (myc "on") cells it was 37 nM.

With `CCOC(=O)NCc1cccc(CC(=O)Nc2ccc(CCCCc3nnc(NC(=O)C(OC)c4ccccc4)s3)nn2)c1` (stereo not drawn) [Compound 609], the IC50 in assay [1] (setting [2]) came out at 9 nM; with P493-6 (myc "on") cells, 14 nM.

In the case of `CC(C)(C)OC(=O)N1Cc2cccc(CC(=O)Nc3ccc(CCCCc4nnc(NC(=O)Cc5cccc(OC(F)(F)F)c5)s4)nn3)c2C1` [Compound 612], the IC50 in assay [1] (setting [2]) amounted to 65 nM; in the assay with P493-6 (myc "on") cells, 100 nM.

Consider `COc1cccc(CC(=O)Nc2ccc(CCCCc3nnc(NC(=O)Cc4cccc(OC(F)(F)F)c4)s3)nn2)c1` [Compound 617], for which the IC50 was found to be 5 nM in assay [1] (setting [2]) and 40 nM with P493-6 (myc "on") cells.

For `O=C(Cc1cccc(Cl)c1)Nc1ccc(CCCCc2nnc(NC(=O)Cc3cccc(OC(F)(F)F)c3)s2)nn1` [Compound 618], the results for the IC50 (in assay [1] (setting [2]); with P493-6 (myc "on") cells) were 8 nM and 35 nM, respectively.

As for `CC(N)c1cccc(CC(=O)Nc2ccc(CCCCc3nnc(NC(=O)C(C)c4ccccc4)s3)nn2)c1` (stereo not drawn) [Compound 619], the IC50 amounted to 13 nM in assay [1] and 150 nM with P493-6 (myc "on") cells.

Regarding `CC(C)C(=O)NC(C)c1cccc(CC(=O)Nc2ccc(CCCCc3nnc(NC(=O)Cc4ccccc4)s3)nn2)c1` (stereo not drawn) [Compound 620], the IC50 in assay [1] (setting [2]) was found to be 5 nM; in the assay on P493-6 (myc "on") cells, 11 nM.

With `CCC(=O)NC(C)c1cccc(CC(=O)Nc2ccc(CCCCc3nnc(NC(=O)Cc4ccccc4)s3)nn2)c1` (stereo not drawn) [Compound 621], the IC50 in assay [1] turned out to be 5 nM; in the assay with P493-6 (myc "on") cells, 20 nM.

The values are drawn from patent US20150004134A1, “TREATMENT OF CANCER WITH HETEROCYCLIC INHIBITORS OF GLUTAMINASE” (Calithera Biosciences, Inc., priority 2012, published 2015).
